From patent publication US11453703B2, “Heterotandem bicyclic peptide complexes” (BicycleTX Limited, priority 2018, dated 2022)

Biological target: CD137 (Homo sapiens, UniProt Q07011)
Assay: CD137 reporter assay, co-culture with Nectin-4 tumour cells;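 note: jurkat reporter cells co-cultured with tumour cells and test article for 6 h, luminescence signal relative to Jurkat plus tumour cells lacking test article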
Assay type: cell-based
Parameters: host or cells: Jurkat reporter cells
Conditions: for fold induction / Fold Induction over Background: tumour target Nectin4, co-culture with H1376, 6 h; for fold induction: read-out: Fold Induction over Background

Sequence of CD137 (Q07011 24-255): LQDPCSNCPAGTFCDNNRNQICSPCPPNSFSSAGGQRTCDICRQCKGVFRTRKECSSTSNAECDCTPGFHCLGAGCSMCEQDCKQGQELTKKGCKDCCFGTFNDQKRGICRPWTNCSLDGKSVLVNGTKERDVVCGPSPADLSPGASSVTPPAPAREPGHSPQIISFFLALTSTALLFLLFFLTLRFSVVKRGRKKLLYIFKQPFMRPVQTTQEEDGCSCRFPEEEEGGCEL

CCCC[C@@H]1NC(=O)[C@H](Cc2ccc(O)cc2)NC(=O)[C@@H]2CCCN2C(=O)[C@H](CC(=O)O)NC(=O)[C@H](C)NC(=O)[C@H](Cc2ccccc2)NC(=O)[C@@H]2CSCCC(=O)N3CN(CN(C3)C(=O)CCSC[C@@H](C(=O)N[C@@H](CNC(=O)CCc3cn(CCOCCOCCOCCOCCOCCOCCOCCOCCOCCOCCNC(=O)N[C@H]4CSCCC(=O)N5CN6CN(C5)C(=O)CCSC[C@H](NC(=O)[C@@H](CC(=O)O)NC(=O)[C@H](Cc5cccc7ccccc57)NC(=O)[C@@H]5CCCN5C4=O)C(=O)N[C@@H](CCSC)C(=O)N[C@@H](CCCCNC(=N)N)C(=O)N[C@@H](CC(=O)O)C(=O)N[C@@H](Cc4c[nH]c5ccccc45)C(=O)N[C@@H](CO)C(=O)N[C@@H]([C@@H](C)O)C(=O)N4CCC[C@H]4C(=O)N4C[C@H](O)C[C@H]4C(=O)N[C@@H](Cc4c[nH]c5ccccc45)C(=O)N[C@H](C(N)=O)CSCCC6=O)nn3)C(N)=O)NC1=O)C(=O)CCSC[C@H](NC(=O)[C@H](C)NC(C)=O)C(=O)N[C@@H]([C@@H](C)CC)C(=O)N[C@@H](CCC(=O)O)C(=O)N[C@@H](CCC(=O)O)C(=O)NCC(=O)N[C@@H](CCC(N)=O)C(=O)N[C@@H](Cc1ccc(O)cc1)C(=O)N2 [BCY9399]
fold induction: 13

CCCC[C@@H]1NC(=O)[C@H](Cc2ccc(O)cc2)NC(=O)[C@@H]2CCCN2C(=O)[C@H](CC(=O)O)NC(=O)[C@H](C)NC(=O)[C@H](Cc2ccccc2)NC(=O)[C@@H]2CSCCC(=O)N3CN(CN(C3)C(=O)CCSC[C@@H](C(=O)N[C@@H](CNC(=O)CCc3cn(CCOCCOCCOCCOCCOCCOCCOCCOCCOCCOCCOCCOCCOCCOCCOCCOCCOCCOCCOCCOCCOCCOCCOCCNC(=O)N[C@H]4CSCCC(=O)N5CN6CN(C5)C(=O)CCSC[C@H](NC(=O)[C@@H](CC(=O)O)NC(=O)[C@H](Cc5cccc7ccccc57)NC(=O)[C@@H]5CCCN5C4=O)C(=O)N[C@@H](CCSC)C(=O)N[C@@H](CCCCNC(=N)N)C(=O)N[C@@H](CC(=O)O)C(=O)N[C@@H](Cc4c[nH]c5ccccc45)C(=O)N[C@@H](CO)C(=O)N[C@@H]([C@@H](C)O)C(=O)N4CCC[C@H]4C(=O)N4C[C@H](O)C[C@H]4C(=O)N[C@@H](Cc4c[nH]c5ccccc45)C(=O)N[C@H](C(N)=O)CSCCC6=O)nn3)C(N)=O)NC1=O)C(=O)CCSC[C@H](NC(=O)[C@H](C)NC(C)=O)C(=O)N[C@@H]([C@@H](C)CC)C(=O)N[C@@H](CCC(=O)O)C(=O)N[C@@H](CCC(=O)O)C(=O)NCC(=O)N[C@@H](CCC(N)=O)C(=O)N[C@@H](Cc1ccc(O)cc1)C(=O)N2 [BCY9400]
fold induction: 13

CCCC[C@@H]1NC(=O)[C@H](Cc2ccc(O)cc2)NC(=O)[C@@H]2CCCN2C(=O)[C@H](CC(=O)O)NC(=O)[C@H](C)NC(=O)[C@H](Cc2ccccc2)NC(=O)[C@@H]2CSCCC(=O)N3CN(CN(C3)C(=O)CCSC[C@@H](C(=O)N[C@@H](CNC(=O)CCc3cn(CCCNC(=O)CN(C)C(=O)CN(C)C(=O)CN(C)C(=O)CN(C)C(=O)CN(C)C(=O)CCOCCOCCOCCOCCOCCOCCOCCOCCOCCOCCOCCOCCOCCOCCOCCNC(=O)N[C@H]4CSCCC(=O)N5CN6CN(C5)C(=O)CCSC[C@H](NC(=O)[C@@H](CC(=O)O)NC(=O)[C@H](Cc5cccc7ccccc57)NC(=O)[C@@H]5CCCN5C4=O)C(=O)N[C@@H](CCSC)C(=O)N[C@@H](CCCCNC(=N)N)C(=O)N[C@@H](CC(=O)O)C(=O)N[C@@H](Cc4c[nH]c5ccccc45)C(=O)N[C@@H](CO)C(=O)N[C@@H]([C@@H](C)O)C(=O)N4CCC[C@H]4C(=O)N4C[C@H](O)C[C@H]4C(=O)N[C@@H](Cc4c[nH]c5ccccc45)C(=O)N[C@H](C(N)=O)CSCCC6=O)nn3)C(N)=O)NC1=O)C(=O)CCSC[C@H](NC(=O)[C@H](C)NC(C)=O)C(=O)N[C@@H]([C@@H](C)CC)C(=O)N[C@@H](CCC(=O)O)C(=O)N[C@@H](CCC(=O)O)C(=O)NCC(=O)N[C@@H](CCC(N)=O)C(=O)N[C@@H](Cc1ccc(O)cc1)C(=O)N2 [BCY9407]
EC50: 3.4 nM | Fold Induction over Background: 29 fold

CCCC[C@@H]1NC(=O)[C@H](Cc2ccc(O)cc2)NC(=O)[C@@H]2CCCN2C(=O)[C@H](CC(=O)O)NC(=O)[C@H](C)NC(=O)[C@H](Cc2ccccc2)NC(=O)[C@@H]2CSCCC(=O)N3CN(CN(C3)C(=O)CCSC[C@@H](C(=O)N[C@@H](CNC(=O)CCOCCOCCOCCOCCOCCOCCOCCOCCOCCOCCOCCOCCOCCOCCOCCOCCOCCOCCOCCOCCOCCOCCOCCOCCOCCC(=O)N[C@H]3CSCCC(=O)N4CN5CN(C4)C(=O)CCSC[C@H](NC(=O)[C@@H](CC(=O)O)NC(=O)[C@H](Cc4cccc6ccccc46)NC(=O)[C@@H]4CCCN4C3=O)C(=O)N[C@@H](CCSC)C(=O)N[C@@H](CCCCNC(=N)N)C(=O)N[C@@H](CC(=O)O)C(=O)N[C@@H](Cc3c[nH]c4ccccc34)C(=O)N[C@@H](CO)C(=O)N[C@@H]([C@@H](C)O)C(=O)N3CCC[C@H]3C(=O)N3C[C@H](O)C[C@H]3C(=O)N[C@@H](Cc3c[nH]c4ccccc34)C(=O)N[C@H](C(N)=O)CSCCC5=O)C(N)=O)NC1=O)C(=O)CCSC[C@H](NC(=O)[C@H](C)NC(C)=O)C(=O)N[C@@H]([C@@H](C)CC)C(=O)N[C@@H](CCC(=O)O)C(=O)N[C@@H](CCC(=O)O)C(=O)NCC(=O)N[C@@H](CCC(N)=O)C(=O)N[C@@H](Cc1ccc(O)cc1)C(=O)N2 [BCY9759]
Fold Induction over Background: 15 fold

CCCC[C@@H]1NC(=O)[C@H](Cc2ccc(O)cc2)NC(=O)[C@@H]2CCCN2C(=O)[C@H](CC(=O)O)NC(=O)[C@H](C)NC(=O)[C@H](Cc2ccccc2)NC(=O)[C@@H]2CSCCC(=O)N3CN(CN(C3)C(=O)CCSC[C@@H](C(=O)N[C@@H](CNC(=O)CCc3cn(CCOCCOCCOCCOCCOCCC(=O)N[C@H]4CSCCC(=O)N5CN6CN(C5)C(=O)CCSC[C@H](NC(=O)[C@@H](CC(=O)O)NC(=O)[C@H](Cc5cccc7ccccc57)NC(=O)[C@@H]5CCCN5C4=O)C(=O)N[C@@H](CCSC)C(=O)N[C@@H](CCCCNC(=N)N)C(=O)N[C@@H](CC(=O)O)C(=O)N[C@@H](Cc4c[nH]c5ccccc45)C(=O)N[C@@H](CO)C(=O)N[C@@H]([C@@H](C)O)C(=O)N4CCC[C@H]4C(=O)N4C[C@H](O)C[C@H]4C(=O)N[C@@H](Cc4c[nH]c5ccccc45)C(=O)N[C@H](C(N)=O)CSCCC6=O)nn3)C(N)=O)NC1=O)C(=O)CCSC[C@H](NC(C)=O)C(=O)N[C@@H](CC(C)(C)C)C(=O)N1CCC[C@H]1C(=O)N[C@@H](CCC(=O)O)C(=O)N[C@H](C)C(=O)N1CCC[C@H]1C(=O)N[C@@H](Cc1ccc(O)cc1)C(=O)N2 [BCY10573]
EC50: 0.9 nM | Fold Induction over Background: 55 fold

CCCC[C@@H]1NC(=O)[C@H](Cc2ccc(O)cc2)NC(=O)[C@@H]2CCCN2C(=O)[C@H](CC(=O)O)NC(=O)[C@H](C)NC(=O)[C@H](Cc2ccccc2)NC(=O)[C@@H]2CSCCC(=O)N3CN(CN(C3)C(=O)CCSC[C@@H](C(=O)N[C@@H](CNC(=O)Cn3cc(CCC(=O)NCCC(=O)N(C)CC(=O)N(C)CC(=O)N(C)CC(=O)N(C)CC(=O)N(C)CC(=O)N(C)CC(=O)N(C)CC(=O)N(C)CC(=O)N(C)CC(=O)N(C)CC(=O)N[C@H]4CSCCC(=O)N5CN6CN(C5)C(=O)CCSC[C@H](NC(=O)[C@@H](CC(=O)O)NC(=O)[C@H](Cc5cccc7ccccc57)NC(=O)[C@@H]5CCCN5C4=O)C(=O)N[C@@H](CCSC)C(=O)N[C@@H](CCCCNC(=N)N)C(=O)N[C@@H](CC(=O)O)C(=O)N[C@@H](Cc4c[nH]c5ccccc45)C(=O)N[C@@H](CO)C(=O)N[C@@H]([C@@H](C)O)C(=O)N4CCC[C@H]4C(=O)N4C[C@H](O)C[C@H]4C(=O)N[C@@H](Cc4c[nH]c5ccccc45)C(=O)N[C@H](C(N)=O)CSCCC6=O)nn3)C(N)=O)NC1=O)C(=O)CCSC[C@H](NC(C)=O)C(=O)N[C@@H](CC(C)(C)C)C(=O)N1CCC[C@H]1C(=O)N[C@@H](CCC(=O)O)C(=O)N[C@H](C)C(=O)N1CCC[C@H]1C(=O)N[C@@H](Cc1ccc(O)cc1)C(=O)N2 [BCY10578]
Fold Induction over Background: 58 fold
